Values quoted from earlier work in patent US20020192774A1, “Method for processing lignocellulosic material” (priority 2000, published 2002).

System: yeast
Settings: pH values as low as 4.5; Taherzadeh et al., 1997

## CC(=O)O [Acetic acid]
  acetate concentration at which yeast is able to grow: 10 g acetate per litre
